Experimental data published in patent US7928121B2, “5-HT7 receptor antagonists” (Laboratorios Del Dr. Esteve, S.A., priority 2004, dated 2011).
Where a name gives a salt, the structure may show the parent alone.

Molecular target: T1, Cloned Human Serotonin Receptor, Subtype 7 (h5HT7) (Homo sapiens, UniProt P34969)
T1 construct: purchased PerkinElmer 6120512; host or cells: CHO cells (membranes coated on Basic FlashPlate SMP200)
Assay: Radioligand binding assay, cloned human serotonin receptor subtype 7 (h5HT7) expressed in CHO cells, [125I]LSD, Flashplate
Details: radioligand [125I]LSD 0.82 nM, room temperature, 240 minutes, triplicate determinations, read-out: 5-HT7 IC-50
Method: Biological Assays Radioligand Binding
Radioligand binding assays were performed using the Cloned Human Serotonin Receptor, Subtype 7 (h5HT7), expressed in CHO cells, coated on Flashplate (Basic FlashPlate Cat.: SMP200) from PerkinElmer (Cat.: 6120512). The protocol assay was essentially the recommended protocol in the Technical Data Sheet by PerkinEmer Life and Analytical Sciences. The Mass membrane protein/well was typically 12 μg and the Receptor/well was about 9-10 fmoles. The Flashplate were let equilibrate at room temperature for one hour before the addition of the components of the assay mixture. The binding buffer was: 50 mM Tris-HCl, pH 7.4, containing 10 mM MgCl2, 0.5 mM EDTA and 0.5% BSA. The radioligand was [^125I]LSD at a final concentration of 0.82 nM. Nonspecific binding was determined with 50 μM of Clozapine. The assay volume was 25 μl. TopSeal-A were applied onto Flashplate microplates and they were incubated at room temperature for 240 minutes in darkness. The radioactivity were quantified by liquid scintillation spectrophotometry (Wallac 1450 Microbeta Trilux) with a count delay of 4 minutes prior to counting and a counting time of 30 seconds per well. Competition binding data were analyzed by using the LIGAND program (Munson and Rodbard, LIGAND: A versatile, computerized approach for characterization of ligand-binding systems. Anal. Biochem. 107: 220-239, 1980) and assays were performed in triplicate determinations for each point.

T1 sequence (P34969 whole entry): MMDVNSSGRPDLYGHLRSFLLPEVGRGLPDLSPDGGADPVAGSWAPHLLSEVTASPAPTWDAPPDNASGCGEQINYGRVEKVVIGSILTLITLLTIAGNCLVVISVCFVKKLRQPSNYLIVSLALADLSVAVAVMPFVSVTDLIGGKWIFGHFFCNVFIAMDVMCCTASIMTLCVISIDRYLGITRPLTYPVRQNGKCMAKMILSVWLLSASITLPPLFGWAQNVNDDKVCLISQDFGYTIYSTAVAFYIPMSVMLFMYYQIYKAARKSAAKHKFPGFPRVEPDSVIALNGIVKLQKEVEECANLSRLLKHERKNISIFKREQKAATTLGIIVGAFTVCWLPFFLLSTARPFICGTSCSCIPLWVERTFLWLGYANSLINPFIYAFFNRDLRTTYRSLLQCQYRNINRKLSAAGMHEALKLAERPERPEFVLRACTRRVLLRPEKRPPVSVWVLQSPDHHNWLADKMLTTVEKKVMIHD

| Structure (SMILES) | IC50 [nM] |
| --- | --- |
| O=S(=O)(c1cc(Cl)c(F)cc1F)N1CCC(CN2CCc3ccccc3C2)CC1 [Compound 1, 2-[1-(5-Chloro-2,4-difluoro-benzenesulfonyl)-piperidin-4-ylmethyl]-1,2,3,4-tetrahydroisoquinoline hydrochloride] | 70.2 |
| O=S(=O)(c1cc(Cl)ccc1Cl)N1CCC(CN2CCc3ccccc3C2)CC1 [Compound 3, 2-[1-(2,5-Dichloro-benzenesulfonyl)-piperidin-4-ylmethyl]-1,2,3,4-tetrahydro-isoquinoline hydrochloride] | 76.4 |
| Cc1cccc(S(=O)(=O)N2CCC(CN3CCc4ccccc4C3)CC2)c1 [Compound 5, 2-[1-(Toluene-3-sulfonyl)-piperidin-4-ylmethyl]-1,2,3,4-tetrahydroisoquinoline hydrochloride] | 63 |
| O=S(=O)(c1cccc2ccccc12)N1CCC(CN2CCc3ccccc3C2)CC1 [Compound 23, 2-[1-(Naphtalene-1-sulfonyl)-piperidin-4-ylmethyl]-1,2,3,4-tetrahydroisoquinoline hydrochloride] | 83.4 |
| COc1cc2c(cc1OC)CN(CC1CCN(S(=O)(=O)c3cc(Cl)ccc3Cl)CC1)CC2 [Compound 85, 2-[1-(2,5-Dichloro-benzenesulfonyl)-piperidin-4-ylmethyl]-6,7-dimethoxy-1,2,3,4-tetrahydro-isoquinoline hydrochloride] | 60.7 |

Stronger by IC50, values ahead:

| IC50 [nM] | Structure (SMILES) |
| --- | --- |
| 28.4 ± 18.2 | O=S(=O)(c1ccccc1Cl)N1CCC(CN2CCc3ccccc3C2)CC1 [Compound 2, 2-[1-(2-Chloro-benzenesulfonyl)-piperidin-4-ylmethyl]-1,2,3,4-tetrahydro-isoquinoline hydrochloride] |
| 18.2 ± 3.7 | O=S(=O)(c1cc(F)c(F)cc1Cl)N1CCC(CN2CCc3ccccc3C2)CC1 [Compound 6, 2-[1-(2-Chloro-4,5-difluoro-benzene-sulfonyl)-piperidin-4-ylmethyl]-1,2,3,4-tetrahydroisoquinoline hydrochloride] |
| 36.1 ± 16 | Cc1cc(S(=O)(=O)N2CCC(CN3CCc4ccccc4C3)CC2)c(C)cc1Cl [Compound 16, 2-[1-(4-Chloro-2,5-dimethyl-benzenesulfonyl)-piperidin-4-ylmethyl]-1,2,3,4-tetrahydroisoquinoline hydrochloride] |
| 16.8 ± 8 | O=S(=O)(c1ccccc1Br)N1CCC(CN2CCc3ccccc3C2)CC1 [Compound 22, 2-[1-(2-Bromo-benzenesulfonyl)-piperidin-4-ylmethyl]-1,2,3,4-tetrahydro-isoquinoline hydrochloride] |
| 41.8 | COc1cc2c(cc1OC)CN(CC1CCN(S(=O)(=O)c3ccccc3Cl)CC1)CC2 [Compound 77, 2-[1-(2-Chlorobenzene-sulfonyl)-piperidin-4-ylmethyl]-6,7-dimethoxy-1,2,3,4-tetrahydroisoquinoline hydrochloride] |
